“And” between values parts separate entries of the source, which are not always exact repeats. Equal values may be shown once.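 96-well plates; 48 h exposure; 5 concentrations. Endpoints by linear interpolation between flanking doses. Not reached: highest tested concentration assigned. GI50 marks 50% less growth. TGI: total growth inhibition.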
Tests used:
Assay in all cases: NCI-60 cell line screen, 48 h
HCT-116 colon = tested on: HCT-116 colon
SF-539 CNS = tested on: SF-539 CNS
ACHN renal = tested on: ACHN renal
HT29 colon = tested on: HT29 colon
SK-MEL-2 melanoma = tested on: SK-MEL-2 melanoma
MALME-3M melanoma = tested on: MALME-3M melanoma
PC-3 prostate = tested on: PC-3 prostate
DU-145 prostate = tested on: DU-145 prostate
NCI/ADR-RES ovarian = tested on: NCI/ADR-RES ovarian
OVCAR-4 ovarian = tested on: OVCAR-4 ovarian

SMILES | TGI (HCT-116 colon) | TGI (SF-539 CNS) | TGI (ACHN renal) | TGI (HT29 colon) | TGI (SK-MEL-2 melanoma) | TGI (MALME-3M melanoma) | TGI (PC-3 prostate) | TGI (DU-145 prostate) | TGI (NCI/ADR-RES ovarian) | TGI (OVCAR-4 ovarian) | GI50 (HCT-116 colon) | GI50 (PC-3 prostate) | GI50 (DU-145 prostate) | GI50 (SF-539 CNS) | GI50 (OVCAR-4 ovarian) | GI50 (SK-MEL-2 melanoma) | GI50 (MALME-3M melanoma) | GI50 (ACHN renal) | GI50 (HT29 colon) | GI50 (NCI/ADR-RES ovarian)
Cc1c(C)c([N+](=O)[O-])c2c(c1N)C(=O)c1ccccc1C2=O | > 100 µM | > 100 µM | > 100 µM | > 100 µM | > 100 µM | > 100 µM |  |  |  |  |  |  |  |  |  |  |  |  |  | 
C=C1C(=O)O[C@@H]2/C=C(/C)[C@@H](OC(C)=O)C/C=C(\C)C(O)[C@@H](OC(=O)/C(C)=C\C)C12 (stereo not given in full) | 29.8 µM | > 100 µM | 40.8 µM | 40.1 µM | 76.8 µM |  | > 100 µM | > 100 µM | 76.5 µM | > 100 µM |  |  |  |  |  |  |  |  |  | 
COC(=O)C1C=CCC2CCCCC21N1CCCC1 (stereo not given) | > 100 µM | > 100 µM | > 100 µM | > 100 µM |  | > 100 µM |  |  |  | > 100 µM |  |  |  |  |  |  |  |  |  | 
Cc1cc(=O)[nH]c(NNC(C#N)c2cccc([N+](=O)[O-])c2)n1 (stereo not given) | > 100 µM | > 100 µM | > 100 µM | > 100 µM | > 100 µM | > 100 µM |  |  |  | > 100 µM |  |  |  |  |  |  |  |  |  | 
CC(=O)Nc1ccc(C2CC(c3ccc([N+](=O)[O-])cc3)=Nc3ccccc3S2)cc1 (stereo not given) | 25.1 µM | 33.5 µM | 32.1 µM | 28.7 µM | 32.9 µM | 35.1 µM |  |  |  | 42.2 µM |  |  |  |  |  |  |  |  |  | 
OCC(O)C(O)C(O)C(/C=N\Nc1ncnc2c(Br)cc(Br)cc12)=N/Nc1ncnc2c(Br)cc(Br)cc12 (stereo not given) | > 100 µM | 33.9 µM | 33 µM and > 100 µM | 42 µM and > 100 µM | 17.6 µM and > 100 µM | 14.4 µM and > 100 µM | 13 µM and > 100 µM | 14.7 µM and > 100 µM |  |  | 19.1 µM and 3.44 µM |  |  |  |  |  |  |  |  | 
COC1(OC)C2(Cl)C3=CCCC=C3C1(Cl)C(Cl)=C2Cl | 43.9 µM | > 100 µM | > 100 µM | 84.3 µM | 36 µM | 49.2 µM |  |  |  | > 100 µM |  |  |  |  |  |  |  |  |  | 
O=C(c1ccccc1)C1N=NN(Cc2ccccc2[N+](=O)[O-])C1C(=O)c1ccccc1 (stereo not given) | > 100 µM |  | > 100 µM | > 100 µM | > 100 µM | > 100 µM |  |  |  | > 100 µM |  |  |  |  |  |  |  |  |  | 
C/C(=N/NC(=S)Nc1ccccc1)c1nc2ccc(Cl)cc2[nH]1 | 0.771 µM | 0.686 µM |  |  | 0.901 µM | 0.401 µM | 2.23 µM | 0.645 µM |  | 2.42 µM | 0.0811 µM | 0.236 µM | 0.0821 µM | 0.129 µM | 0.0466 µM | 0.252 µM | 0.0737 µM |  |  | 
CCOc1c(Br)cc(Br)cc1C=C(C#N)C#N | > 10 µM | 6.21 µM | > 10 µM | > 10 µM | > 10 µM | > 10 µM | > 10 µM |  | 4.98 µM | > 10 µM |  |  |  |  |  |  |  |  |  | 
CN(C)C(=S)/N=c1\ss/c(=N\C(=S)N(C)C)n1-c1cccc(Cl)c1 | > 100 µM | > 100 µM | > 100 µM | > 100 µM | > 100 µM | > 100 µM |  |  |  | > 100 µM |  |  |  |  |  |  |  |  |  | 
CC(C)(C)C#COC(=O)c1ccccc1 | > 100 µM | > 100 µM | > 100 µM | > 100 µM | > 100 µM | > 100 µM |  |  |  | > 100 µM |  |  |  |  |  |  |  |  |  | 
CC(=O)[CH-]C(C)=O.CC(=O)[CH-]C(C)=O.[O-]c1ccccc1.[O-]c1ccccc1.[Ti+4] | > 100 µM | > 100 µM | > 100 µM | > 100 µM | > 100 µM | > 100 µM |  |  |  | > 100 µM | > 100 µM |  |  | > 100 µM | > 100 µM | > 100 µM | > 100 µM | > 100 µM | > 100 µM | 
O=c1c(-c2ccc3c(c2)OCO3)coc2c3c(ccc12)OCO3 | > 100 µM | 58.7 µM | 38.8 µM |  | > 100 µM |  | > 100 µM | > 100 µM |  | 70.6 µM |  |  |  |  |  |  |  |  |  | 
COc1cc2c(/C=C3\C(=O)Nc4ccccc43)c[nH]c2cc1C | 1.22 µM | < 0.0243 µM | 4.51 µM | > 100 µM | > 63.4 µM |  | 13.2 µM | 12.3 µM | 0.0736 µM |  | < 0.01 µM | 0.213 µM | 0.0242 µM | < 0.0138 µM |  | 17.7 µM |  | 1.64 µM | 0.152 µM | < 0.01 µM
O=C(Nc1ccc(Cl)cc1C(F)(F)F)C(=O)Nn1c(=S)[nH]c2ccccc2c1=O | > 100 µM | > 100 µM | > 100 µM | > 100 µM | > 100 µM |  | > 100 µM |  | > 100 µM | > 100 µM |  |  |  |  |  |  |  |  |  | 
COc1cc2c(cc1C)NC(=O)/C2=C/c1ccnc2ccccc12 | > 50 µM | > 50 µM | 25.6 µM |  | > 50 µM |  | > 50 µM | > 50 µM | 41.2 µM |  | 24.4 µM | 7.07 µM | 29.1 µM | 20.8 µM |  | 26.3 µM |  | 10.3 µM |  | 15.6 µM
CC(C)Cc1cnc(CC(C)C)c(=O)[nH]1 | > 100 µM |  | > 100 µM | > 100 µM | > 100 µM |  | > 100 µM | > 100 µM |  | > 100 µM |  |  |  |  |  |  |  |  |  | 
CN1CCCC2[C@@H]3CCC4c5nonc5CC[C@]4(C)C3CC[C@@]21C (stereo not given in full) | > 100 µM | > 100 µM | > 100 µM | > 100 µM | > 100 µM | > 100 µM |  |  |  | > 100 µM |  |  |  |  |  |  |  |  |  | 
O=c1[nH]ccc(CNC23CC4CC(CC(C4)C2)C3)c1O | > 100 µM | > 100 µM | > 100 µM | > 100 µM | > 100 µM | > 100 µM |  |  |  | > 100 µM |  |  |  |  |  |  |  |  |  | 
N/N=C(/Cc1ccccc1)NNO | > 100 µM | > 100 µM | > 100 µM | > 100 µM | > 100 µM | > 100 µM |  |  |  | > 100 µM |  |  |  |  |  |  |  |  |  | 
O=c1c(Cc2ccccc2)c(O)cc2n1CCC2 | > 100 µM | > 100 µM | > 100 µM | > 100 µM |  | > 100 µM |  |  |  | > 100 µM |  |  |  |  |  |  |  |  |  | 
O=C1CC23CCCCCCCCCCC2(C1)CC(=O)C3 (stereo not given) |  | > 100 µM | > 100 µM | 37.2 µM | 42.9 µM | 76.1 µM |  |  |  |  |  |  |  |  |  |  |  |  |  | 
c1ccc2c(c1)[nH]c1c2nc2ccccn21 | > 100 µM | > 100 µM | > 100 µM | > 100 µM | > 100 µM | > 100 µM |  |  |  | > 100 µM |  |  |  |  |  |  | 27.8 µM and > 100 µM |  |  | 

Reference: PubChem BioAssay (NCI)
